Data: patent US5691311A (Biogen, Inc., priority 1995, dated 1997)
Read-outs that look alike come from different tables or passages of the source.

Assays:
[1] = system: human α-thrombin (1.6 nM chromogenic assay; 0.25 μM HPLC assay); experiment: human α-thrombin in 20 mM Tris-HCl pH 7.4 containing 0.1M NaCl
APTT = experiment: Systemic anticoagulant effect (APTT) of antithrombotic agents; format: in vivo, baboon; conditions: dose not given
Source text: We also tested the effects of a variety of other agents on template bleeding time in the baboon, as well as on systemic anticoagulant effects (as measured by APTT).

hemostasis = experiment: Template bleeding time; format: in vivo, baboon
[2] = system: platelet-dependent thrombosis; conditions: collagen-coated surfaces, reported values; cited from earlier work
human α-thrombin [3] = experiment: human α-thrombin in 20 mM Tris-HCl pH 7.4 containing 0.1M NaCl
human α-thrombin [4] = target: T1, human α-thrombin (Homo sapiens, UniProt P00734); experiment: Thrombin-catalyzed hydrolysis of Spectrozyme TH; format: biochemical; conditions: for Ki: method of Example 9, Spectrozyme TH; for inhibitory activity versus linker length: FIG. 6
T1 construct: proteolysis of the B-chain of α-thrombin; human α-thrombin-catalyzed hydrolysis of Spectrozyme TH
Protocol: The thrombin-catalyzed rate was monitored in a Cary 19 spectrophotometer at 405 nm and recorded continuously as a function of time. Kinetics were performed at room temperature (25°±1°C.) in a 0.05M Tris, pH 7.5, 0.1M NaCl buffer.
For a typical enzyme reaction, 1.0 ml of buffer was added to both the sample and reference cuvettes. […] Immediately following addition of substrate, the contents of the sample cuvette were mixed by use of a plastic pipette. The reaction was monitored spectrophotometrically for 5-15 minutes.
Initial rate velocities at each substrate concentration were expressed as moles Spectrozyme TH hydrolyzed/sec/mole thrombin. This was determined during the initial linear phase of the reaction (≤15% total hydrolysis of substrate) by measuring the slope of the hydrolytic reaction. Lineweaver-Burke plots were constructed accordingly, by plotting the inverse of the initial velocity against the inverse of the substrate concentration.

human α-thrombin [5] = target: T1, human α-thrombin; experiment: Cleavage of Hirulogs by thrombin (chromogenic and HPLC assays); format: biochemical; conditions: turnover rate of Hirulog hydrolysis by thrombin
Protocol: Aliquots (0.975 ml) of the reaction mixtures were removed at various times and mixed in a cuvette with 0.025 ml Spectrozyme TH (11 μM final concentration), a chromogenic substrate. The initial rate of reaction was determined and, based on control mixtures containing thrombin in the absence of Hirulog, the % inhibition was calculated.
An alternate method employed reverse-phase HPLC separation of aliquots from a Hirulog/thrombin reaction mixture. In this assay we added human α-thrombin (0.25 μM final concentrations) to a reaction vessel containing one of the above Hirulogs (12.5 μM final concentration). Aliquots (50 μl) were removed both prior to and at various times following the addition of thrombin. The aliquots were either flash frozen of injected directly onto the HPLC column. The HPLC system employed an Applied Biosystems Liquid Chromatography System equipped with an Aquapore C, column (0.46×10 cm). The column was equilibrated in 70% solvent A (0.1% TFA in water) and 30% solvent B (0.085% TFA/70% acetonitrile) and developed with a linear gradient of from 30 to 50% solvent B over 30 minutes at a flow rate of 1 ml/minute. The effluent stream was monitored at 214 nm. Peptide concentrations were determined by measurement of peak heights.
Both of the above-described assays allow determination of the rate of Hirulog hydrolysis by thrombin (expressed in M/min) and turnover rate (kcat; expressed in min^-1).

## N-acetyl-Gly-Asp-phe-Leu-Ala-Glu-(Gly)3 -Val-Arg-Pro-(Gly)4 -Asn-Gly-Asp-Phe-Glu-Glu-Ile-Pro-Glu-Glu-Tyr-Leu-OH
[1]
  cleaved bond: Arg-Pro, minor

## N=C(N)c1ccccc1 [Benzamidine, benzamidine]
APTT
  APTT (% control): 757.6 % control
hemostasis; dose not given
  Bleeding Time: 10 min
[2]
  ED50: 3000 nmol/kg/min

## H-(D-Phe)-Pro-(β-homoarginine)-Val-(Gly)4 -Asn-Gly-Asp-Phe-Glu-Glu-Ile-Pro-Glu-Glu-Tyr-Leu-OH
Human α-thrombin [3]
  not cleaved: kcat <0.01 min^-1; resistant to thrombin cleavage

## NC(N)=NCCC[C@H](NC(=O)[C@@H]1CCCN1C(=O)[C@H](N)Cc1ccccc1)C(=O)CCl [PPACK, D-Phe-Pro-Arg-CHCl2]
APTT
  APTT (% control): 287.9 % control
hemostasis; dose not given
  Bleeding Time: 12 min
[2]
  ED50: 75 nmol/kg/min

## CC[C@H](C)[C@H](NC(=O)[C@H](CCC(=O)O)NC(=O)[C@H](CCC(=O)O)NC(=O)[C@H](Cc1ccccc1)NC(=O)[C@H](CC(=O)O)NC(=O)CNC(=O)[C@H](CC(N)=O)NC(=O)CNC(=O)CNC(=O)CNC(=O)CNC(=O)CNC(=O)C[C@H](CCCNC(=N)N)NC(=O)[C@@H]1CCCN1C(=O)[C@H](N)Cc1ccccc1)C(=O)N1CCC[C@H]1C(=O)N[C@@H](CCC(=O)O)C(=O)N[C@@H](CCC(=O)O)C(=O)N[C@@H](Cc1ccc(O)cc1)C(=O)N[C@@H](CC(C)C)C(=O)O [Hirulog-18a]
Human α-thrombin [4]; Ki
  Ki: 0.0074 µM

## CC[C@H](C)[C@H](NC(=O)[C@H](CCC(=O)O)NC(=O)[C@H](CCC(=O)O)NC(=O)[C@H](Cc1ccccc1)NC(=O)[C@H](CC(=O)O)NC(=O)CNC(=O)[C@H](CC(N)=O)NC(=O)CNC(=O)CNC(=O)[C@@H]1CCCN1C(=O)[C@H](CCCNC(=N)N)NC(=O)[C@@H]1CCCN1C(=O)[C@H](N)Cc1ccccc1)C(=O)N1CCC[C@H]1C(=O)N[C@@H](CCC(=O)O)C(=O)N[C@@H](CCC(=O)O)C(=O)N[C@@H](Cc1ccc(O)cc1)C(=O)N[C@@H](CC(C)C)C(=O)O [Hirulog-13]
Human α-thrombin [4]; 18 Å linker length, versus Hirulogs-8, -15, -16
  reduction of activity: more than 10 fold

## CC[C@H](C)[C@H](NC(=O)[C@H](CCC(=O)O)NC(=O)[C@H](CCC(=O)O)NC(=O)[C@H](Cc1ccccc1)NC(=O)[C@H](CC(=O)O)NC(=O)CNC(=O)[C@H](CC(N)=O)NC(=O)CNC(=O)CNC(=O)CNC(=O)CNC(=O)CNC(=O)CNC(=O)[C@@H]1CCCN1C(=O)[C@H](CCCNC(=N)N)NC(=O)[C@@H]1CCCN1C(=O)[C@H](N)Cc1ccccc1)C(=O)N1CCC[C@H]1C(=O)N[C@@H](CCC(=O)O)C(=O)N[C@@H](CCC(=O)O)C(=O)N[C@@H](Cc1ccc(O)cc1)C(=O)N[C@@H](CC(C)C)C(=O)O [Hirulog-15]
Human α-thrombin [4]
  inhibitory activity versus linker length: comparable inhibitory activities

## CC[C@H](C)[C@H](NC(=O)[C@H](CCC(=O)O)NC(=O)[C@H](CCC(=O)O)NC(=O)[C@H](Cc1ccccc1)NC(=O)[C@H](CC(=O)O)NC(=O)CNC(=O)[C@H](CC(N)=O)NC(=O)CNC(=O)CNC(=O)CNC(=O)CNC(=O)CNC(=O)[C@H](CCCNC(=N)N)NC(=O)[C@@H]1CCCN1C(=O)[C@H](N)Cc1ccccc1)C(=O)N1CCC[C@H]1C(=O)N[C@@H](CCC(=O)O)C(=O)N[C@@H](CCC(=O)O)C(=O)N[C@@H](Cc1ccc(O)cc1)C(=O)N[C@@H](CC(C)C)C(=O)O [Hirulog-32]
Human α-thrombin [4]
  inhibition of thrombin-catalyzed hydrolysis of Spectrozyme TH (in words): poor inhibitors
Human α-thrombin [4]; Ki
  Ki: > 2 µM
Human α-thrombin [5]
  kcat: 8.92 s⁻¹

## CC[C@H](C)[C@H](NC(=O)[C@H](CCC(=O)O)NC(=O)[C@H](CCC(=O)O)NC(=O)[C@H](Cc1ccccc1)NC(=O)[C@H](CC(=O)O)NC(=O)CNC(=O)[C@H](CC(N)=O)NC(=O)CNC(=O)CNC(=O)CNC(=O)CNC(=O)CNC(=O)CNC(=O)CNC(=O)CNC(=O)[C@@H]1CCCN1C(=O)[C@H](CCCNC(=N)N)NC(=O)[C@@H]1CCCN1C(=O)[C@H](N)Cc1ccccc1)C(=O)N1CCC[C@H]1C(=O)N[C@@H](CCC(=O)O)C(=O)N[C@@H](CCC(=O)O)C(=O)N[C@@H](Cc1ccc(O)cc1)C(=O)N[C@@H](CC(C)C)C(=O)O [Hirulog-16]
Human α-thrombin [4]
  inhibitory activity versus linker length: comparable inhibitory activities

## CC[C@H](C)[C@H](NC(=O)[C@H](CCC(=O)O)NC(=O)[C@H](CCC(=O)O)NC(=O)[C@H](Cc1ccccc1)NC(=O)[C@H](CC(=O)O)NC(=O)CNC(=O)[C@H](CC(N)=O)NC(=O)CNC(=O)CNC(=O)CNC(=O)CNC(=O)CNC[C@H](CCCNC(=N)N)NC(=O)[C@@H]1CCCN1C(=O)[C@H](N)Cc1ccccc1)C(=O)N1CCC[C@H]1C(=O)N[C@@H](CCC(=O)O)C(=O)N[C@@H](CCC(=O)O)C(=O)N[C@@H](Cc1ccc(O)cc1)C(=O)N[C@@H](CC(C)C)C(=O)O [Hirulog-19]
Human α-thrombin [4]; Ki
  Ki: 0.02 µM

## H-(D-Phe)-Pro-(β-homoarginine)-Pro-(Gly)4 -Asn-Gly-Asp-Phe-Glu-Glu-Ile-Pro-Glu-Glu-Tyr-Leu-OH
Human α-thrombin [3]
  not cleaved: kcat <0.01 min^-1; resistant to thrombin cleavage

## CC[C@H](C)[C@H](NC(=O)[C@H](CCC(=O)O)NC(=O)[C@H](CCC(=O)O)NC(=O)[C@H](Cc1ccccc1)NC(=O)[C@H](CC(=O)O)NC(=O)CNC(=O)[C@H](CC(N)=O)NC(=O)CNC(=O)CNC(=O)CNC(=O)CNC(=O)[C@@H]1CCCN1C(=O)C[C@H](CCCNC(=N)N)NC(=O)[C@@H]1CCCN1C(=O)[C@H](N)Cc1ccccc1)C(=O)N1CCC[C@H]1C(=O)N[C@@H](CCC(=O)O)C(=O)N[C@@H](CCC(=O)O)C(=O)N[C@@H](Cc1ccc(O)cc1)C(=O)N[C@@H](CC(C)C)C(=O)O [Hirulog-18b]
Human α-thrombin [4]; Ki
  Ki: 0.0046 µM

## CC[C@H](C)[C@H](NC(=O)[C@H](CCC(=O)O)NC(=O)[C@H](CCC(=O)O)NC(=O)[C@H](Cc1ccccc1)NC(=O)[C@H](CC(=O)O)NC(=O)CNC(=O)[C@H](CC(N)=O)NC(=O)CNC(=O)CNC(=O)CNC(=O)CNC(=O)[C@@H](NC(=O)C[C@H](CCCNC(=N)N)NC(=O)[C@@H]1CCCN1C(=O)[C@H](N)Cc1ccccc1)C(C)C)C(=O)N1CCC[C@H]1C(=O)N[C@@H](CCC(=O)O)C(=O)N[C@@H](CCC(=O)O)C(=O)N[C@@H](Cc1ccc(O)cc1)C(=O)N[C@@H](CC(C)C)C(=O)O [Hirulog-18c]
Human α-thrombin [4]; Ki
  Ki: 0.205 µM

## H-(D-Phe)-Pro-Arg-Sar-(Gly)5 -Asn-Gly-Asp-Phe-Glu-Glu-Ile-Pro-Glu-Glu-Tyr-Leu-OH
[1]
  cleaved bond: Arg-Sar

## H-(D-Phe)-Pro-Arg-(Gly)5 -Asn-Gly-Asp-Phe-Glu-Glu-Ile-Pro-Glu-Glu-Tyr-Leu-OH
[1]
  cleaved bond: Arg-Gly

## N-acetyl-Gly-Asp-phe-Leu-Ala-Glu-(Gly)3 -Val-Arg-Pro-(Gly)4 -Asn-Gly-Asp-Phe-Glu-Glu-Ile-Pro-Glu-Glu-Tyr-Leu-OH [Hirulog-33]
Human α-thrombin [4]; read-out: Ki
  Ki: 0.0036 µM
Human α-thrombin [5]
  kcat: 0.000933 s⁻¹

## CC[C@H](C)[C@H](NC(=O)[C@H](CCC(=O)O)NC(=O)[C@H](CCC(=O)O)NC(=O)[C@H](Cc1ccccc1)NC(=O)[C@H](CC(=O)O)NC(=O)CNC(=O)[C@H](CC(N)=O)NC(=O)CNC(=O)CNC(=O)CNC(=O)CNC(=O)CNC(=O)CN(C)C(=O)[C@H](CCCNC(=N)N)NC(=O)[C@@H]1CCCN1C(=O)[C@H](N)Cc1ccccc1)C(=O)N1CCC[C@H]1C(=O)N[C@@H](CCC(=O)O)C(=O)N[C@@H](CCC(=O)O)C(=O)N[C@@H](Cc1ccc(O)cc1)C(=O)N[C@@H](CC(C)C)C(=O)O [Hirulog-10]
Human α-thrombin [4]
  inhibition of thrombin-catalyzed hydrolysis of Spectrozyme TH (in words): poor inhibitors
Human α-thrombin [4]; Ki
  Ki: > 2 µM
Human α-thrombin [5]
  kcat: 0.167 s⁻¹

## CC1CNc2c(cccc2S(=O)(=O)N[C@@H](CCCNC(=N)N)C(=O)N2CC[C@@H](C)C[C@@H]2C(=O)O)C1 (stereo partly drawn) [Argipidine (MD805), argatroban (argipidine)]
APTT
  APTT (% control): > 900 % control
hemostasis; in vivo
  Bleeding Time: > 30 min
[2]
  ED50: 550 nmol/kg/min

## H-(D-Phe)-Pro-Arg-Pro-(Gly)4 -Asn-Gly-Asp-Phe-Glu-Glu-Ile-Pro-Glu-Glu-Tyr-Leu-OH
[1]
  cleaved bond: Arg-Pro, minor
